Measurements as given in US20050182128A1, “Use of anethole dithiolethione in lung cancer chemoprevention” (priority 2002, published 2005).
Entries after “also recorded” stand apart in the source; their conditions may differ. Marks after values point to notes of the source that are not given here.

Columns and labels:
bronchial dysplasia = test: Phase IIb randomized placebo-controlled trial: histopathology grade of bronchial biopsies before and after six months; format: in vivo, human
Protocol: One hundred and one volunteer current and former smokers with ≧30 pack-years smoking history and bronchial dysplasia identified by autofluorescence bronchoscopy directed biopsies were randomly assigned to receive ADT 25 mg orally TID or placebo for six months followed by a repeat bronchoscopy and biopsy of the same sites plus any new areas suspicious of dysplasia. Changes in the histopathology grade of the biopsies were used as the primary endpoint biomarker. All P values were two-sided.
Assessment For Eligibility. Five hundred and fifty-eight current and former smokers over 40 years of age in the Greater Vancouver area with a smoking history of ≧30 pack-years were invited to take part in the study. A former smoker was defined as one who had given up smoking for a year or more. They were recruited through the community outreach network of the public relations department of the British Columbia Cancer Agency (BCCA) using television programs, radio broadcasts and local newspapers. Following an initial interview, which included a questionnaire to document the smoking history, a sputum sample was obtained by induction using simultaneous high frequency chest wall oscillation with the ABI vest (Advanced Respiratory Inc. St. Pauls, Minn.) and 3% hypertonic saline for 12 minutes. […] Of these, 262 agreed to have an autofluorescence bronchoscopy with the LIFE-Lung device (Xillix Technologies Corp., Richmond, BC, Canada) (Lam et al., 1998; Lam et al., 1999). Biopsies were taken from areas with abnormal fluorescence (Lam et al., 1998; Lam et al., 1999). In addition, at least two control biopsies were taken from an upper or lower lobe. The average number of biopsies per subject was 6.7 (range 4 to 12).
Randomization. Participants with one or more sites of bronchial dysplasia were randomly assigned to receive either Sialor® (Solvay Pharma, France) at a dose of 25 mg three times daily by mouth or its placebo for six months. The placebo tablets were identical in size, shape and color to the active drug. Randomization codes were generated by a statistician at the Population and Prevention Oncology Division of BCCA and distributed to the BCCA pharmacy. All study personnel were blinded to the study coeds. Randomization was stratified according to the smoking status (current or former smoker) and dysplasia grade (mild, moderate or severe). Once a participant met the enrollment criteria, the study nurse contacted the pharmacist who then provided the study medication according to the randomization code.
(§1) Follow Up. The participants were seen monthly for examination of drug related adverse events. Liver enzymes were measured at baseline and at months 3 and 6 for toxicity monitoring. Fluorescence bronchoscopy was repeated after 6 months of study medication. The bronchoscopist was blinded to the intervention assignment. All previously biopsied sites were identified and re-biopsied under fluorescence bronchoscopy. Biopsy was also taken from new areas with abnormal fluorescence.
The primary outcome of the study was changes in the histopathology grade of the bronchial biopsies before and after six months of intervention. The secondary endpoint was changes in the nuclear morphometry index of the bronchial biopsies.
The biopsies were fixed in buffered formalin, embedded in paraffin, sectioned and stained with hematoxylin-eosin (H&E). Two pathologists (JCL, AFG) systematically reviewed them. The pathologists were blinded to the treatment assignments. All biopsies were classified into one of seven groups. Normal: as represented by pseudostratified ciliated columnar epithelium. Basal cell hyperplasia: as represented by an increase in the number and stratification of normal-appearing basal cells still covered with normal ciliated or mucin secreting cells. Metaplasia: as represented by a stratified epithelium and cytoplasmic changes consistent with squamoid differentiation. […]

[1] = Phase IIb trial: adverse events and toxicity monitoring; format: in vivo, human
Protocol: as §1

[2] = tested on: glutathione-S-transferase (GST); details: rat model of hepatoma; p<0.01; cited from earlier work
lipid peroxidation = details: in-vitro, rat liver microsome model; cited from earlier work
nuclear factor NFκB = details: human Jurkat cells; cited from earlier work
human Jurkat cells = details: pretreatment of human Jurkat cells; cited from earlier work
aflatoxin tumorigenicity = details: rats; cited from earlier work
[3] = histopathology, lesion specific, 6 months
[4] = histopathology, person specific, of 56

COc1ccc(-c2cc(=S)ss2)cc1 [ADT, 5-(p-methoxyphenyl)-1,2-dithiole-3-thione]
Progression of pre-existing dysplastic lesions and/or appearance of new lesions compared to placebo (bronchial dysplasia; 6 months, 25 mg orally TID): significantly lower rate of progression; also recorded: statistically reduces the appearances of new dysplastic lesion or progression of pre-existing dysplastic lesions
CR or PD rates, full dose compared to reduced dose (bronchial dysplasia; all P-values >0.90): no significant difference in the CR or PD rates
Biopsies of grade 1 (normal/hyperplasia) at 6 months follow-up (bronchial dysplasia; baseline grade 1): 100
Biopsies of grade 2 (metaplasia) at 6 months follow-up (bronchial dysplasia; baseline grade 1): 9
Biopsies of grade 3 (mild dysplasia) at 6 months follow-up (bronchial dysplasia; baseline grade 1): 5
Biopsies of grade 4 (moderate dysplasia) at 6 months follow-up (bronchial dysplasia; baseline grade 1): 2
Biopsies of grade 5 (severe dysplasia) at 6 months follow-up (bronchial dysplasia; baseline grade 1): 0
Biopsies of grade 1 (normal/hyperplasia) at 6 months follow-up (bronchial dysplasia; baseline grade 2): 22
Biopsies of grade 2 (metaplasia) at 6 months follow-up (bronchial dysplasia; baseline grade 2): 2
Biopsies of grade 3 (mild dysplasia) at 6 months follow-up (bronchial dysplasia; baseline grade 2): 3
Biopsies of grade 4 (moderate dysplasia) at 6 months follow-up (bronchial dysplasia; baseline grade 2): 0
Biopsies of grade 5 (severe dysplasia) at 6 months follow-up (bronchial dysplasia; baseline grade 2): 0
Biopsies of grade 1 (normal/hyperplasia) at 6 months follow-up (bronchial dysplasia; baseline grade 3): 53
Biopsies of grade 2 (metaplasia) at 6 months follow-up (bronchial dysplasia; baseline grade 3): 14
Biopsies of grade 3 (mild dysplasia) at 6 months follow-up (bronchial dysplasia; baseline grade 3): 27
Biopsies of grade 4 (moderate dysplasia) at 6 months follow-up (bronchial dysplasia; baseline grade 3): 6
Biopsies of grade 5 (severe dysplasia) at 6 months follow-up (bronchial dysplasia; baseline grade 3): 0
Biopsies of grade 1 (normal/hyperplasia) at 6 months follow-up (bronchial dysplasia; baseline grade 4): 8
Biopsies of grade 2 (metaplasia) at 6 months follow-up (bronchial dysplasia; baseline grade 4): 0
Biopsies of grade 3 (mild dysplasia) at 6 months follow-up (bronchial dysplasia; baseline grade 4): 2
Biopsies of grade 4 (moderate dysplasia) at 6 months follow-up (bronchial dysplasia; baseline grade 4): 3
Biopsies of grade 5 (severe dysplasia) at 6 months follow-up (bronchial dysplasia; baseline grade 4): 1
Biopsies of grade 1 (normal/hyperplasia) at 6 months follow-up (bronchial dysplasia; baseline grade 5): 0
Biopsies of grade 2 (metaplasia) at 6 months follow-up (bronchial dysplasia; baseline grade 5): 0
Biopsies of grade 3 (mild dysplasia) at 6 months follow-up (bronchial dysplasia; baseline grade 5): 2
Biopsies of grade 4 (moderate dysplasia) at 6 months follow-up (bronchial dysplasia; baseline grade 5): 0
Biopsies of grade 5 (severe dysplasia) at 6 months follow-up (bronchial dysplasia; baseline grade 5): 0
Biopsies of grade 1 (normal/hyperplasia) at 6 months follow-up (bronchial dysplasia; baseline: not sampled): 34
Biopsies of grade 2 (metaplasia) at 6 months follow-up (bronchial dysplasia; baseline: not sampled): 8
Biopsies of grade 3 (mild dysplasia) at 6 months follow-up (bronchial dysplasia; baseline: not sampled): 13
Biopsies of grade 4 (moderate dysplasia) at 6 months follow-up (bronchial dysplasia; baseline: not sampled): 0
Biopsies of grade 5 (severe dysplasia) at 6 months follow-up (bronchial dysplasia; baseline: not sampled): 1
CR rate (bronchial dysplasia; dose reduction yes): 24%
PD rate (bronchial dysplasia; dose reduction yes): 32%
PR rate (bronchial dysplasia; dose reduction yes): 32%
CR, number of participants (bronchial dysplasia; dose reduction yes, of 25): 6
PD, number of participants (bronchial dysplasia; dose reduction yes, of 25): 8
PR, number of participants (bronchial dysplasia; dose reduction yes, of 25): 8
PD rate lower than placebo, person specific analysis (bronchial dysplasia; histopathology, 6 months): 22%
Partial response (PR) rate, person specific analysis (bronchial dysplasia; histopathology, 6 months): (23%)
Stable disease (SD) rate, person specific analysis (bronchial dysplasia; histopathology, 6 months): (18%)
Progressive disease (PD) rate, lesion specific analysis (bronchial dysplasia; histopathology, 6 months ADT 25 mg orally TID, placebo 17%, P<0.001): 8%
Complete response (CR) rate, lesion specific analysis (bronchial dysplasia; histopathology, 6 months, placebo 41%, P=0.14): 53%
PD rate lower than placebo, lesion specific analysis (bronchial dysplasia; histopathology, 8% ADT versus 17% placebo): 9%
CR rate higher than placebo, person specific analysis (bronchial dysplasia; histopathology, 27% versus 16%): 11%
CR rate higher than placebo, lesion specific analysis (bronchial dysplasia; histopathology, 53% versus 41%, not significant): 12%
CR lesions / dysplastic lesions at baseline (bronchial dysplasia; [3]): 61/116
PD lesions / all biopsies (bronchial dysplasia; [3]): 24/315
CR, number of participants (bronchial dysplasia; [4]): 15
PD, number of participants (bronchial dysplasia; [4]): 18
PR, number of participants (bronchial dysplasia; [4]): 13
Association of treatment with odds of CR (bronchial dysplasia; multiple logistic regression): not significantly associated with increasing odds of CR
OR, likelihood of progressive disease six months after intervention (bronchial dysplasia; multiple logistic regression, ADT is reference, placebo OR 3.5 (95% CI 1.3-9.3, P 0.01)): 1
PD rate (bronchial dysplasia; no dose reduction): 32%
PR rate (bronchial dysplasia; no dose reduction): 16%
CR rate (bronchial dysplasia; no dose reduction (full 25 mg TID)): 29%
CR, number of participants (bronchial dysplasia; no dose reduction (full 25 mg TID), of 31): 9
PD, number of participants (bronchial dysplasia; no dose reduction, of 31): 10
PR, number of participants (bronchial dysplasia; no dose reduction, of 31): 5
Biopsies of grade 1 (normal/hyperplasia) at 6 months follow-up (bronchial dysplasia; total of all baseline grades): 217
Biopsies of grade 2 (metaplasia) at 6 months follow-up (bronchial dysplasia; total of all baseline grades): 33
Biopsies of grade 3 (mild dysplasia) at 6 months follow-up (bronchial dysplasia; total of all baseline grades): 52
Biopsies of grade 4 (moderate dysplasia) at 6 months follow-up (bronchial dysplasia; total of all baseline grades): 11
Biopsies of grade 5 (severe dysplasia) at 6 months follow-up (bronchial dysplasia; total of all baseline grades): 2
Adverse events, overall description ([1]; 25 mg orally TID, six months): mostly minor gastrointestinal symptoms that resolved with dose reduction or discontinuation of the medication; also recorded: only adverse events observed were gastrointestinal
Symptoms significantly more frequent than with placebo ([1]; P=0.018): Only abdominal bloating was significantly more frequent
Subjects with dose reduced to 25 mg BID ([1]; of 56): 17
Subjects with dose reduced to 25 mg QD ([1]; of 56): 4
Constipation ([1]; placebo 0%): 5%
Increased Saliva ([1]; placebo 4%): 2%
Abdominal Bloating ([1]; placebo 4%, P = 0.01 compared to placebo): 25%*
Participants with Grade 3 symptoms ([1]; placebo 6%): 11%
Loose Stool ([1]; placebo 8%): 16%
Diarrhea ([1]; placebo 12%): 13%
Participants with Grade 2 symptoms ([1]; placebo 20%): 51%
Participants requiring dose reduction ([1]; placebo 25%): 45%
Excessive Flatus ([1]; placebo 53%): 93%
Grade 3 elevation of liver enzymes ([1]; returned to normal after discontinuation): One of the participants
Mean GST levels in the liver [2]: statistically increased
Inhibition of lipid peroxidation (lipid peroxidation): potent inhibitor of lipid peroxidation
Modulation of NFκB activation (nuclear factor NFκB): capable of modulating
Protection against oxidative stress-induced cytotoxicity (human Jurkat cells): significantly protects cells
Protection against aflatoxin tumorigenicity (aflatoxin tumorigenicity): protective action against aflatoxin tumorigenicity
